Tests used:
[1] = molecular target: MAP kinase-activated protein kinase 3 (Homo sapiens) (UniProt Q16644); assay: Residual activity of MAPKAPK3 at 1 uM by microplate scintillation counting
[2] = test system: RAF proto-oncogene serine/threonine-protein kinase (Homo sapiens), P04049 [Y340D,Y341D]; assay: Residual activity of RAF1 Y340D/Y341D mutant at 10 uM by microplate scintillation counting
[3] = molecular target: Leukocyte tyrosine kinase receptor (Homo sapiens) (UniProt P29376); assay: Residual activity of LTK at 10 uM by microplate scintillation counting
Sequence of Leukocyte tyrosine kinase receptor (Homo sapiens) (P29376 whole entry): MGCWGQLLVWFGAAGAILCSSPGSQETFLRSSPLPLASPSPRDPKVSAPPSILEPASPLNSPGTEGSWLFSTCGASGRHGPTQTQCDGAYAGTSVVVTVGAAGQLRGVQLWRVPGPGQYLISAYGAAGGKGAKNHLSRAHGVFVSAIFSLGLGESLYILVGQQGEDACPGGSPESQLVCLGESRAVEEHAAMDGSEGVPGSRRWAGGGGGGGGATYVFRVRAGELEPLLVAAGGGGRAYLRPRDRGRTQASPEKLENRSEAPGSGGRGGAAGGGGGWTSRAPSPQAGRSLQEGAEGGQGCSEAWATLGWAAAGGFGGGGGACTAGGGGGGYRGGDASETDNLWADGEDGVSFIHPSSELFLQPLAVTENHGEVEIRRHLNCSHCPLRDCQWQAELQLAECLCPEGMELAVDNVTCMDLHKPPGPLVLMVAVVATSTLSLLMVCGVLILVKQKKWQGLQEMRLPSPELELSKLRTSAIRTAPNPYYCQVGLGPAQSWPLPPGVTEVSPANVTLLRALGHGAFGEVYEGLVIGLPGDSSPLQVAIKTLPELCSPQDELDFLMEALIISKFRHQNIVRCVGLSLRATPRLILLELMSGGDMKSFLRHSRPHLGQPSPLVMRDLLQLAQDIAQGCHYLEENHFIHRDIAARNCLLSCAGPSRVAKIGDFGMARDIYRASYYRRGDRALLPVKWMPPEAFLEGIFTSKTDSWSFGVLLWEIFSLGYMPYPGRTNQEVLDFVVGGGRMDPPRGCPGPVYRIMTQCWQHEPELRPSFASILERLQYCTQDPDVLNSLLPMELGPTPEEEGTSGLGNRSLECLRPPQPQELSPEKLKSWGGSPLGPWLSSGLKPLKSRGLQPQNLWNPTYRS

[4] = molecular target: Dual specificity tyrosine-phosphorylation-regulated kinase 1A (Homo sapiens) (UniProt Q13627); assay: Residual activity of DYRK1A at 1 uM by microplate scintillation counting
[5] = molecular target: Myosin light chain kinase 2, skeletal/cardiac muscle (Homo sapiens) (UniProt Q9H1R3); assay: Residual activity of MYLK2 at 10 uM by microplate scintillation counting
Sequence of Myosin light chain kinase 2, skeletal/cardiac muscle (Homo sapiens) (Q9H1R3 whole entry): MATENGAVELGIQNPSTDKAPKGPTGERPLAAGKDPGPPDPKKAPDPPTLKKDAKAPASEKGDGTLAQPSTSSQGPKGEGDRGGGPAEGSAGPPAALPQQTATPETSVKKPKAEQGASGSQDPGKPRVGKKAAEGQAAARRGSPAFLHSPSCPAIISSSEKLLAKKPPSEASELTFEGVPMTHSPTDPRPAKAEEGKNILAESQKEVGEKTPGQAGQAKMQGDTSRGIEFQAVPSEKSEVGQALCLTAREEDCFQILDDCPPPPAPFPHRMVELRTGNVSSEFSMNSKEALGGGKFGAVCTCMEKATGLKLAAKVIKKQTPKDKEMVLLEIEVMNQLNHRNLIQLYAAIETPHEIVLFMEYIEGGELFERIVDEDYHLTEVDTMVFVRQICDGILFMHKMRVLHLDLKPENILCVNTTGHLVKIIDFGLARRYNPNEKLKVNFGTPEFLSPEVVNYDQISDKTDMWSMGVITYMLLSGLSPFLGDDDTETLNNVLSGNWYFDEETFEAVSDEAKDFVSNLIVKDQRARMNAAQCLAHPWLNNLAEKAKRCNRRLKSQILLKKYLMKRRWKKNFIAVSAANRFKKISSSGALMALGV

[6] = molecular target: T1, Beta-adrenergic receptor kinase 1 (Homo sapiens) (UniProt P25098); assay: Residual activity of GRK2 at 1 uM by microplate scintillation counting
T1 sequence (whole entry): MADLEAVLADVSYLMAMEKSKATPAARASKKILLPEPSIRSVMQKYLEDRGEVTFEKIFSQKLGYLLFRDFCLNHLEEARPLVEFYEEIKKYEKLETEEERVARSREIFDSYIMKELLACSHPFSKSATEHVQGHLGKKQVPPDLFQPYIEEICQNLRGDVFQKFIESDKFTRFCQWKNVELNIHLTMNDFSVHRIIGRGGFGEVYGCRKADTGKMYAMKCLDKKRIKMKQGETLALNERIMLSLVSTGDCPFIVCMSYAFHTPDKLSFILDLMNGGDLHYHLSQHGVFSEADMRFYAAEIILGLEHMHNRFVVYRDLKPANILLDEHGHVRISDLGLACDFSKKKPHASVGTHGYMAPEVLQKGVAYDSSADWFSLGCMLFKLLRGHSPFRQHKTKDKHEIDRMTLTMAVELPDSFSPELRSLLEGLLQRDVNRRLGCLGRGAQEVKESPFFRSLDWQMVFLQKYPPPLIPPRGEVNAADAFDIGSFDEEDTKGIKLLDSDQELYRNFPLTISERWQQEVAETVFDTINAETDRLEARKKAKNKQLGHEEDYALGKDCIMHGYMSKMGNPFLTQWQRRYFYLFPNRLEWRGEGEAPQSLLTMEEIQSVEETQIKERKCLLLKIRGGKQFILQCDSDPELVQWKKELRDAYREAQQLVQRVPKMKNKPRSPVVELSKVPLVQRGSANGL

[7] = molecular target: T2, Serine/threonine-protein kinase DCLK2 (Homo sapiens) (UniProt Q8N568); assay: Residual activity of DCAMKL2 at 0.1 uM by microplate scintillation counting
T2 sequence (whole entry): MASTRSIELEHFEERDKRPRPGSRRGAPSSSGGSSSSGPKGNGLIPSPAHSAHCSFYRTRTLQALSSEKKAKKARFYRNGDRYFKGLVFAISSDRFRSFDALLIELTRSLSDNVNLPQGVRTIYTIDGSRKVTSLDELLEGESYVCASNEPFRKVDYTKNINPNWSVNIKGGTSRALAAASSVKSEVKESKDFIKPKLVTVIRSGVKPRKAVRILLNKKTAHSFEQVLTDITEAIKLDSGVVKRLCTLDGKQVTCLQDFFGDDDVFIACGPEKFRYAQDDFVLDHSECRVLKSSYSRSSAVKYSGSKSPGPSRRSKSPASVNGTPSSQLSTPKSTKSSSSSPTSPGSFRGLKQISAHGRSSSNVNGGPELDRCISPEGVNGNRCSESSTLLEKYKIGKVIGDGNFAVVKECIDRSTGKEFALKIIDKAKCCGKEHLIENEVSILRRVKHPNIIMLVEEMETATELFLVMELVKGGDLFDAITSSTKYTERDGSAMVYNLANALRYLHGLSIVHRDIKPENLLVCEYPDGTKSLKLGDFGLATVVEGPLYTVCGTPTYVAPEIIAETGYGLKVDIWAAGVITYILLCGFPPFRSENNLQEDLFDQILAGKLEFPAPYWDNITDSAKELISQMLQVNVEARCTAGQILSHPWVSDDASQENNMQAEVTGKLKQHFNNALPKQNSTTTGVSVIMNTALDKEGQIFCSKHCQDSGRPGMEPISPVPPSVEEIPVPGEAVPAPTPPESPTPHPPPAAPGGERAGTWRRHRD

[8] = molecular target: T3, Serine/threonine-protein kinase 4 (Homo sapiens) (UniProt Q13043); assay: Residual activity of MST1 at 0.1 uM by microplate scintillation counting
T3 sequence (whole entry): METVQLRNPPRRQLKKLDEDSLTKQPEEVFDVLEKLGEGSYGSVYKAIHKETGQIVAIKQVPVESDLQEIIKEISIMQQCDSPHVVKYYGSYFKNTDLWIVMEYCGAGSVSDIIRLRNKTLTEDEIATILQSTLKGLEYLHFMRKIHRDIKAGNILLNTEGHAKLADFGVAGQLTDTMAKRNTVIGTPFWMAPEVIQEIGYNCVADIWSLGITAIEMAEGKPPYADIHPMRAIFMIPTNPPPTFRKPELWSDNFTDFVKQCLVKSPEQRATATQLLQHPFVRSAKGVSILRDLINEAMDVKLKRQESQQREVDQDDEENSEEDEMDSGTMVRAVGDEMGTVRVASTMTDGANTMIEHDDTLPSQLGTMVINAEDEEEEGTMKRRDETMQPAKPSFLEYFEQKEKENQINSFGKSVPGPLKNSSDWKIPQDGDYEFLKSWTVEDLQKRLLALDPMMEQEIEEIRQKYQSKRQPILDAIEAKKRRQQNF

[9] = molecular target: T4, Serine/threonine-protein kinase Sgk1 (Homo sapiens) (UniProt O00141); assay: Residual activity of SGK1 at 10 uM by microplate scintillation counting
T4 sequence (whole entry): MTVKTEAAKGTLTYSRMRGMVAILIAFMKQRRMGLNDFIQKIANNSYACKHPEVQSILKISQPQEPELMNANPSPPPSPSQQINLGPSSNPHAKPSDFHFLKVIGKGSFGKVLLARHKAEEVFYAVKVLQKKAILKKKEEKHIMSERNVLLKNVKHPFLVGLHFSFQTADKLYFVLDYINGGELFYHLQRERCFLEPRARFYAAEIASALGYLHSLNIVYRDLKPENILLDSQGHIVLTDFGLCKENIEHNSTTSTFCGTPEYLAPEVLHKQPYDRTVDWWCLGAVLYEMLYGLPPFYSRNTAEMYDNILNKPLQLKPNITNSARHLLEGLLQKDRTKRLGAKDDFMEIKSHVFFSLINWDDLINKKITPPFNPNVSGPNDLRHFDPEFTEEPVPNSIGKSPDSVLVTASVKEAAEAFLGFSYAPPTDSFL

[10] = molecular target: CDK1/Cyclin E (Homo sapiens) (UniProt P06493+P24864); assay: Residual activity of CDK1/Cyclin E at 10 uM by microplate scintillation counting; format: protein-complex assay
Sequence of CDK1/Cyclin E (Homo sapiens) (P06493 whole entry, looked up): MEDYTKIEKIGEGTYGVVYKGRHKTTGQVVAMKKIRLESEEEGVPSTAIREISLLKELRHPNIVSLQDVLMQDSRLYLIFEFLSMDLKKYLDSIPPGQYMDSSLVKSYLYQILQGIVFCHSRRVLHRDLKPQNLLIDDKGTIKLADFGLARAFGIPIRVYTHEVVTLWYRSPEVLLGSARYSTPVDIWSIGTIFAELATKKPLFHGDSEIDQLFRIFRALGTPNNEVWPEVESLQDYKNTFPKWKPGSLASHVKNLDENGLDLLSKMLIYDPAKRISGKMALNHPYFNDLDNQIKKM
Sequence of CDK1/Cyclin E (Homo sapiens) (P24864 whole entry, looked up): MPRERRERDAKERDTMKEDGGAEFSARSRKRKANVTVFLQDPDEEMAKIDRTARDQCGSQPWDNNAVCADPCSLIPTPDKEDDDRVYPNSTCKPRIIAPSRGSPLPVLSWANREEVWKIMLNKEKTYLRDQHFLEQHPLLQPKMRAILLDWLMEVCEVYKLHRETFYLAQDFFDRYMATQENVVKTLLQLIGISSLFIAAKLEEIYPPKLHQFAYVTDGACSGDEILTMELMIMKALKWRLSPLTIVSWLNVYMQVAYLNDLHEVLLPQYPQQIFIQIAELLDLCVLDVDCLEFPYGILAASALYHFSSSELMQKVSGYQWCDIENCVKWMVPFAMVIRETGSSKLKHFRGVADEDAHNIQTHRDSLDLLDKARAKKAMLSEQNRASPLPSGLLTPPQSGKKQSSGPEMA

Sequence of MAP kinase-activated protein kinase 3 (Homo sapiens) (Q16644 whole entry, looked up): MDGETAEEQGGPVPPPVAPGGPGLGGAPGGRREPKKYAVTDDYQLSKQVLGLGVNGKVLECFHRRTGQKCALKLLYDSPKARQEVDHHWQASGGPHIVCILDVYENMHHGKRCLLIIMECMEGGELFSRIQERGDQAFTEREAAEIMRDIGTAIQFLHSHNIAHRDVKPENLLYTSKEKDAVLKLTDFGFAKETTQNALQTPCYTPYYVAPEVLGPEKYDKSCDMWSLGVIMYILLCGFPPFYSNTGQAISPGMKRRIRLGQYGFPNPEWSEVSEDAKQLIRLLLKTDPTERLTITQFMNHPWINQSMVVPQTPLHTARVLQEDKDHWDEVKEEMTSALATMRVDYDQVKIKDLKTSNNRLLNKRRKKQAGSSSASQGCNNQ

Row | residual activity [1] [%] | residual activity [2] [%] | residual activity [3] [%] | residual activity [4] [%] | residual activity [5] [%] | residual activity [6] [%] | residual activity [7] [%] | residual activity [8] [%] | residual activity [9] [%] | residual activity [10] [%] | SMILES
1 | 94 | 61 | 200 | 92 | 82 | 97 | 87 | 96 | 92 | 93 | COc1cc2c(Oc3ccc(-c4nc5ccccc5s4)cc3)ncnc2cc1OCCCN1CCCC1
2 | 98 | 108 | 89 | 91 | 117 | 85 | 80 | 104 | 117 | 107 | COc1cc2c(Oc3ccc(-c4nc5ccccc5s4)cc3F)ncnc2cc1OCCCN1CCN(C)CC1
3 | 85 | 74 | 163 | 93 | 115 | 105 | 66 | 96 | 0 | 108 | COc1cc2c(Oc3ccc(-c4nc5ccccc5s4)cc3)ncnc2cc1OCCCN1CCN(C)CC1

— ChEMBL document CHEMBL1152560, “Substituted 2-arylbenzothiazoles as kinase inhibitors: hit-to-lead optimization” (Bioorg Med Chem, 2009)
